Measurements reported in PubChem BioAssay (NCI).
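Values below derive from 48-hour exposures of cells grown in 96-well plates, with endpoints linearly interpolated between the two concentrations bracketing the appropriate inhibition level. TGI denotes the concentration required for complete inhibition of growth.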

How the values were obtained:
Test in all cases: inhibition of tumour cell growth, NCI panel, 48 h
[1] = test system: ACHN renal
[2] = test system: NCI-H460 lung
[3] = test system: UO-31 renal
[4] = test system: LOX IMVI melanoma
[5] = test system: MALME-3M melanoma
[6] = test system: SW-620 colon
[7] = test system: T-47D breast
[8] = test system: SN12C renal
[9] = test system: RXF 393 renal
[10] = test system: SK-MEL-5 melanoma
[11] = test system: SK-OV-3 ovarian
[12] = test system: NCI/ADR-RES ovarian
[13] = test system: NCI-H23 lung
[14] = test system: EKVX NSCLC
[15] = test system: RPMI-8226 leukemia
[16] = test system: MOLT-4 leukemia
[17] = test system: SR leukemia
[18] = test system: SNB-19 CNS
[19] = test system: OVCAR-5 ovarian
[20] = test system: CCRF-CEM leukemia
[21] = test system: UACC-257 melanoma
[22] = test system: PC-3 prostate
[23] = test system: MDA-MB-231 breast
[24] = test system: K-562 leukemia
[25] = test system: MDA-MB-435
[26] = test system: TK-10 renal
[27] = test system: DU-145 prostate
[28] = test system: COLO 205 colon
[29] = test system: M14 melanoma
[30] = test system: HOP-62 NSCLC
[31] = test system: OVCAR-8 ovarian
[32] = test system: HCC-2998 colon
[33] = test system: A549 NSCLC
[34] = test system: OVCAR-4 ovarian
[35] = test system: SF-539 CNS
[36] = test system: HT29 colon
[37] = test system: NCI-H522 lung
[38] = test system: MCF7 breast
[39] = test system: IGROV1 ovarian
[40] = test system: SF-295 CNS
[41] = test system: SK-MEL-2 melanoma
[42] = test system: HS 578T breast
[43] = test system: HCT-15 colon
[44] = test system: MDA-N
[45] = test system: 786-0 renal
[46] = test system: SNB-75 CNS
[47] = test system: HL-60(TB) leukemia
[48] = test system: NCI-H226 lung
[49] = test system: SF-268 CNS
[50] = test system: HCT-116 colon
[51] = test system: BT-549 breast
[52] = test system: OVCAR-3 ovarian
[53] = test system: CAKI-1 renal
[54] = test system: SK-MEL-28 melanoma
[55] = test system: UACC-62 melanoma
[56] = test system: U251 CNS
[57] = test system: HOP-92 NSCLC
[58] = test system: KM12 colon
[59] = test system: A498 renal

CC(=O)N1C(Nc2cnc3ccccc3c2)CCN1c1ccccc1 (stereo not given)
TGI [1]: > 10 µM
TGI [2]: > 10 µM
TGI [3]: > 10 µM
TGI [4]: > 10 µM
TGI [5]: > 10 µM
TGI [6]: > 10 µM
TGI [7]: > 10 µM
TGI [8]: > 10 µM
TGI [9]: > 10 µM
TGI [10]: > 10 µM
TGI [11]: > 10 µM
TGI [12]: > 10 µM
TGI [13]: > 10 µM
TGI [14]: > 10 µM
TGI [15]: > 10 µM
TGI [16]: > 10 µM
TGI [17]: > 10 µM
TGI [18]: > 10 µM
TGI [19]: > 10 µM
TGI [20]: > 10 µM
TGI [21]: > 10 µM
TGI [22]: > 10 µM
TGI [23]: > 10 µM
TGI [24]: > 10 µM
TGI [25]: > 10 µM
TGI [26]: > 10 µM
TGI [27]: > 10 µM
TGI [28]: > 10 µM
TGI [29]: > 10 µM
TGI [30]: > 10 µM
TGI [31]: > 10 µM
TGI [32]: > 10 µM
TGI [33]: > 10 µM
TGI [34]: > 10 µM
TGI [35]: > 10 µM
TGI [36]: > 10 µM
TGI [37]: > 10 µM
TGI [38]: > 10 µM
TGI [39]: > 10 µM
TGI [40]: > 10 µM
TGI [41]: > 10 µM
TGI [42]: > 10 µM
TGI [43]: > 10 µM
TGI [44]: > 10 µM
TGI [45]: > 10 µM
TGI [46]: > 10 µM
TGI [47]: > 10 µM
TGI [48]: > 10 µM
TGI [49]: > 10 µM
TGI [50]: > 10 µM
TGI [51]: > 10 µM
TGI [52]: > 10 µM
TGI [53]: > 10 µM
TGI [54]: > 10 µM

Nc1nc(N)c2c(Cl)c(CNc3ccc(C(=O)NC(CC(=O)O)C(=O)O)cc3)ccc2n1 (stereo not given)
TGI [1]: > 100 µM
TGI [2]: > 100 µM
TGI [3]: > 100 µM
TGI [4]: > 100 µM
TGI [5]: > 100 µM
TGI [6]: > 100 µM
TGI [55]: > 100 µM
TGI [56]: > 100 µM
TGI [7]: > 100 µM
TGI [57]: > 100 µM
TGI [8]: > 100 µM
TGI [9]: > 100 µM
TGI [10]: > 100 µM
TGI [11]: > 93.3 µM
TGI [12]: > 100 µM
TGI [13]: > 100 µM
TGI [15]: > 100 µM
TGI [16]: > 100 µM
TGI [17]: > 100 µM
TGI [18]: > 100 µM
TGI [21]: > 100 µM
TGI [22]: > 100 µM
TGI [23]: > 100 µM
TGI [24]: > 100 µM
TGI [25]: > 100 µM
TGI [26]: > 100 µM
TGI [27]: > 100 µM
TGI [28]: > 100 µM
TGI [29]: > 100 µM
TGI [30]: > 100 µM
TGI [31]: > 100 µM
TGI [32]: > 100 µM
TGI [33]: > 100 µM
TGI [34]: > 100 µM
TGI [58]: > 100 µM
TGI [35]: 31.9 µM
TGI [36]: > 100 µM
TGI [38]: > 34.2 µM
TGI [39]: 0.415 µM
TGI [40]: > 100 µM
TGI [41]: > 100 µM
TGI [42]: > 100 µM
TGI [43]: > 100 µM
TGI [44]: > 100 µM
TGI [45]: > 100 µM
TGI [46]: > 100 µM
TGI [47]: > 100 µM
TGI [48]: > 100 µM
TGI [49]: > 100 µM
TGI [50]: > 100 µM
TGI [51]: > 100 µM
TGI [52]: > 100 µM
TGI [53]: > 100 µM

COC(=O)C#Cc1cccc(OC)c1OC
TGI [1]: > 100 µM
TGI [2]: > 100 µM
TGI [3]: 37.9 µM
TGI [4]: > 100 µM
TGI [5]: > 100 µM
TGI [6]: > 100 µM
TGI [55]: > 100 µM
TGI [56]: > 100 µM
TGI [7]: > 100 µM
TGI [59]: > 100 µM
TGI [57]: 66.1 µM
TGI [8]: > 100 µM
TGI [10]: > 100 µM
TGI [11]: > 100 µM
TGI [12]: 99 µM
TGI [13]: > 100 µM
TGI [14]: 54.4 µM
TGI [15]: > 100 µM
TGI [16]: 35.4 µM
TGI [17]: 44.8 µM
TGI [18]: > 100 µM
TGI [19]: 51.3 µM
TGI [20]: 67.9 µM
TGI [21]: > 100 µM
TGI [22]: > 100 µM
TGI [23]: > 100 µM
TGI [24]: 55.1 µM
TGI [25]: > 100 µM
TGI [26]: > 100 µM
TGI [27]: > 100 µM
TGI [28]: 65.7 µM
TGI [29]: > 100 µM
TGI [30]: > 100 µM
TGI [31]: > 100 µM
TGI [32]: 48.2 µM
TGI [33]: > 100 µM
TGI [34]: 36.2 µM
TGI [58]: > 100 µM
TGI [35]: 46.4 µM
TGI [36]: 79.2 µM
TGI [38]: 55.6 µM
TGI [40]: > 100 µM
TGI [42]: > 100 µM
TGI [43]: > 100 µM
TGI [44]: > 100 µM
TGI [45]: > 100 µM
TGI [47]: > 100 µM
TGI [48]: > 100 µM
TGI [50]: > 100 µM
TGI [51]: > 100 µM
TGI [52]: > 100 µM
TGI [53]: 68.3 µM
TGI [54]: > 100 µM
